Assay results published in patent US6355799B1, “Substituted benzene compounds, process for their preparation, and herbicidal and defoliant compositions containing them” (ISK Americas Incorporated, priority 1997, dated 2002).

Assays:
Type in all cases: in vivo
[1] = test system: redroot pigweed (Amaranthus retroflexus, AMARE); assay: Post-emerge test, greenhouse herbicide activity screening; details: post-emerge, 14 days after application, rating scale 0-100
Excerpt: (§1) A standard greenhouse herbicide activity screening system was used to evaluate the herbicidal efficacy and crop safety of these test compounds. Seven broadleaf weed species including redroot pigweed (Amaranthus retroflexus, AMARE, velvetleaf (Abutilon theophrasti, ABUTH), sicklepod (Cassia obtusifolia, CASOB), ivyleaf morningglory (Ipomoea hederacea, IPOHE), lambsquarters (Chenopodium album, CHEAL), common ragweed (Ambrosia artemisizfolia L., AMBEL), and cocklebur (Xanthium strumarium, XANST) were used as test species. Four grass weed species including green foxtail (Setaria viridis, SETVI), barnyardgrass (Echinochloa crus-galli, ECHCG), johnsongrass (Sorghum halepense, SORHA), and large crabgrass (Digitaria sanguinalis, DIGSA) were also used. In addition, three crop species, field corn (Zea mays L., var. Dekalb 535, CORN), soybean (Glycine max L., var. Pella 86, SOY), and is upland rice (Oryza sp., var. Tebonnet, RICE) were included.
(§2) All plants were grown in 10 cm square plastic pots which were filled with a sandy loam soil mix. For pre-emerge tests, seeds were planted one day prior to application of the test compounds. For post-emerge tests, seeds were planted 8-21 days prior to the test to allow emergence and good foliage development prior to application of the test substances. At the time of the post-emerge application, plants of all species were usually at the 2-3 leaf stage of development.
(§3) All test compounds Were dissolved in acetone and applied to the test units in a volume of 187 l /ha. Test materials were applied at rates ranging from 15 g ai/ha to 1000 g ai/ha using a track sprayer equipped with a TJ8001E even flow flat fan spray nozzle. Plants were arranged on a shelf so that the top of the canopy (post-emerge) or top of the soil surface (pre-emerge) was 40-45 cm below the nozzle. Pressurized air was used to force the test solution through the nozzle as it was mechanically advanced (via electrically driven chain drive) over the top of all test plants/pots. This application simulates a typical commercial field herbicide application.
(§4) In the post-emerge test, a commercial non-ionic surfactant was also included (0.25% v/v) to enhance wetting of the leaf surfaces of target plants. Immediately after application, test units of the pre-emerge applications were watered at the soil surface to incorporate the test materials. Subsequently, these test units were bottom-watered. Post-emerge test units were always bottom-watered.
(§5) At 14 days after application of the test materials, phytotoxicity ratings were recorded. A rating scale of 0-100 was used as previously described in Research Methods in Weed Science, 2nd edition, B. Truelove, Ed., Southern Weed Science Society, Auburn University, Auburn, Ala. 1977. Briefly, “0” corresponds to no damage and “100” corresponds to complete death of all plants in the test unit. This scale was used both to determine efficacy against weed species and damage to crop species. Herbicide activity data for various compounds of this invention, which are shown by compound No. in Tables 1-8, are shown in Tables 11 and 12.

[2] = test system: sicklepod (Cassia obtusifolia, CASOB); assay: as above; details: post-emerge, 14 days after application, rating scale 0-100
Excerpt: as §1, §2, §3, §4, §5

[3] = test system: large crabgrass (Digitaria sanguinalis, DIGSA); assay: as above; details: post-emerge, 14 days after application, rating scale 0-100
Excerpt: as §1, §2, §3, §4, §5

[4] = test system: velvetleaf (Abutilon theophrasti, ABUTH); assay: as above; details: post-emerge, 14 days after application, rating scale 0-100
Excerpt: as §1, §2, §3, §4, §5

[5] = test system: lambsquarters (Chenopodium album, CHEAL); assay: as above; details: post-emerge, 14 days after application, rating scale 0-100
Excerpt: as §1, §2, §3, §4, §5

[6] = test system: barnyardgrass (Echinochloa crus-galli, ECHCG); assay: as above; details: post-emerge, 14 days after application, rating scale 0-100
Excerpt: as §1, §2, §3, §4, §5

[7] = test system: ivyleaf morningglory (Ipomoea hederacea, IPOHE); assay: as above; details: post-emerge, 14 days after application, rating scale 0-100
Excerpt: as §1, §2, §3, §4, §5

[8] = test system: green foxtail (Setaria viridis, SETVI); assay: as above; details: post-emerge, 14 days after application, rating scale 0-100
Excerpt: as §1, §2, §3, §4, §5

[9] = test system: upland rice (Oryza sp., var. Tebonnet, RICE); assay: Pre-emerge test, crop safety; details: pre-emerge, 14 days after application, scale 0-100
Excerpt: as §1, §2, §3, §4, §5

[10] = test system: field corn (Zea mays L., var. Dekalb 535, CORN); assay: Pre-emerge test, crop safety; details: pre-emerge, 14 days after application, scale 0-100
Excerpt: as §1, §2, §3, §4, §5

[11] = test system: sicklepod (Cassia obtusifolia, CASOB); assay: Pre-emerge test, greenhouse herbicide activity screening; details: pre-emerge, 14 days after application, scale 0-100
Excerpt: as §1, §2, §3, §4, §5

[12] = test system: large crabgrass (Digitaria sanguinalis, DIGSA); assay: as above; details: pre-emerge, 14 days after application, scale 0-100
Excerpt: as §1, §2, §3, §4, §5

[13] = test system: velvetleaf (Abutilon theophrasti, ABUTH); assay: as above; details: pre-emerge, 14 days after application, scale 0-100
Excerpt: as §1, §2, §3, §4, §5

[14] = test system: lambsquarters (Chenopodium album, CHEAL); assay: as above; details: pre-emerge, 14 days after application, scale 0-100
Excerpt: as §1, §2, §3, §4, §5

[15] = test system: barnyardgrass (Echinochloa crus-galli, ECHCG); assay: as above; details: pre-emerge, 14 days after application, scale 0-100
Excerpt: as §1, §2, §3, §4, §5

[16] = test system: ivyleaf morningglory (Ipomoea hederacea, IPOHE); assay: as above; details: pre-emerge, 14 days after application, scale 0-100
Excerpt: as §1, §2, §3, §4, §5

[17] = test system: green foxtail (Setaria viridis, SETVI); assay: as above; details: pre-emerge, 14 days after application, scale 0-100
Excerpt: as §1, §2, §3, §4, §5

[18] = test system: upland rice (Oryza sp., var. Tebonnet, RICE); assay: Post-emerge test, crop safety; details: post-emerge, 14 days after application, rating scale 0-100
Excerpt: as §1, §2, §3, §4, §5

[19] = test system: field corn (Zea mays L., var. Dekalb 535, CORN); assay: Post-emerge test, crop safety; details: post-emerge, 14 days after application, rating scale 0-100
Excerpt: as §1, §2, §3, §4, §5

[20] = test system: redroot pigweed (Amaranthus retroflexus, AMARE); assay: Pre-emerge test, greenhouse herbicide activity screening; details: pre-emerge, 14 days after application, scale 0-100
Summary of the method: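 Compounds in acetone were track-sprayed at 187 l/ha, 15–1000 g ai/ha, onto sandy loam pots. Pre-emerge seeds were sown one day before spraying, with surface watering afterwards. Post-emerge plants were at the 2–3 leaf stage and sprayed with 0.25% v/v non-ionic surfactant. Injury was rated 0–100 at 14 days.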

Row | SMILES | AMARE phytotoxicity rating ([1]; 63 g ai/ha) | AMARE phytotoxicity rating ([1]; 250 g ai/ha) | CASOB phytotoxicity rating ([2]; 63 g ai/ha) | CASOB phytotoxicity rating ([2]; 250 g ai/ha) | DIGSA phytotoxicity rating ([3]; 63 g ai/ha) | DIGSA phytotoxicity rating ([3]; 250 g ai/ha) | ABUTH phytotoxicity rating ([4]; 63 g ai/ha) | ABUTH phytotoxicity rating ([4]; 250 g ai/ha) | CHEAL phytotoxicity rating ([5]; 63 g ai/ha) | CHEAL phytotoxicity rating ([5]; 250 g ai/ha) | ECHCG phytotoxicity rating ([6]; 63 g ai/ha) | ECHCG phytotoxicity rating ([6]; 250 g ai/ha) | IPOHE phytotoxicity rating ([7]; 63 g ai/ha) | IPOHE phytotoxicity rating ([7]; 250 g ai/ha) | SETVI phytotoxicity rating ([8]; 63 g ai/ha) | SETVI phytotoxicity rating ([8]; 250 g ai/ha) | phytotoxicity rating RICE (crop damage) ([9]; 63 g ai/ha) | phytotoxicity rating RICE (crop damage) ([9]; 250 g ai/ha) | phytotoxicity rating CORN (crop damage) ([10]; 63 g ai/ha) | phytotoxicity rating CORN (crop damage) ([10]; 250 g ai/ha) | also measured
1 | COc1c(Cl)cc(F)c(-n2c(=O)cc(C(F)(F)F)n(C)c2=O)c1NC(=O)CCc1cc(C)ccc1C [2-130] | 100 | 100 | 80 | 70 | 30 | 50 | 100 | 100 | 100 | 100 | 50 | 60 | 100 | 100 | 60 | 70 | 0 | 15 | 0 | 5 | phytotoxicity rating CASOB ([11]; 63 g ai/ha): 0; phytotoxicity rating CASOB ([11]; 250 g ai/ha): 40; phytotoxicity rating DIGSA ([12]; 63 g ai/ha): 20; phytotoxicity rating DIGSA ([12]; 250 g ai/ha): 90; phytotoxicity rating ABUTH ([13]; 63 g ai/ha): 100; phytotoxicity rating ABUTH ([13]; 250 g ai/ha): 100; phytotoxicity rating CHEAL ([14]; 63 g ai/ha): 60; phytotoxicity rating CHEAL ([14]; 250 g ai/ha): 100; phytotoxicity rating ECHCG ([15]; 63 g ai/ha): 0; phytotoxicity rating ECHCG ([15]; 250 g ai/ha): 30; phytotoxicity rating IPOHE ([16]; 63 g ai/ha): 0; phytotoxicity rating IPOHE ([16]; 250 g ai/ha): 30; phytotoxicity rating SETVI ([17]; 63 g ai/ha): 50; phytotoxicity rating SETVI ([17]; 250 g ai/ha): 100; RICE phytotoxicity rating (crop damage) ([18]; 63 g ai/ha): 20; RICE phytotoxicity rating (crop damage) ([18]; 250 g ai/ha): 25; CORN phytotoxicity rating (crop damage) ([19]; 63 g ai/ha): 10; CORN phytotoxicity rating (crop damage) ([19]; 250 g ai/ha): 30; phytotoxicity rating AMARE ([20]; 63 g ai/ha): 40; phytotoxicity rating AMARE ([20]; 250 g ai/ha): 100
2 | COc1c(Cl)cc(F)c(-n2c(=O)cc(C(F)(F)F)n(C)c2=O)c1NC(=O)COc1ccc(Cl)cc1 [2-135] | 100 | 100 | 70 | 100 | 0 | 10 | 100 | 100 | 100 | 100 | 0 | 20 | 100 | 95 | 15 | 40 | 0 | 35 | 0 | 0 | phytotoxicity rating CASOB ([11]; 63 g ai/ha): 10; phytotoxicity rating CASOB ([11]; 250 g ai/ha): 60; phytotoxicity rating DIGSA ([12]; 63 g ai/ha): 60; phytotoxicity rating DIGSA ([12]; 250 g ai/ha): 95; phytotoxicity rating ABUTH ([13]; 63 g ai/ha): 90; phytotoxicity rating ABUTH ([13]; 250 g ai/ha): 100; phytotoxicity rating CHEAL ([14]; 63 g ai/ha): 100; phytotoxicity rating CHEAL ([14]; 250 g ai/ha): 100; phytotoxicity rating ECHCG ([15]; 63 g ai/ha): 10; phytotoxicity rating ECHCG ([15]; 250 g ai/ha): 30; phytotoxicity rating IPOHE ([16]; 63 g ai/ha): 20; phytotoxicity rating IPOHE ([16]; 250 g ai/ha): 100; phytotoxicity rating SETVI ([17]; 63 g ai/ha): 80; phytotoxicity rating SETVI ([17]; 250 g ai/ha): 100; RICE phytotoxicity rating (crop damage) ([18]; 63 g ai/ha): 20; RICE phytotoxicity rating (crop damage) ([18]; 250 g ai/ha): 40; CORN phytotoxicity rating (crop damage) ([19]; 63 g ai/ha): 10; CORN phytotoxicity rating (crop damage) ([19]; 250 g ai/ha): 25; phytotoxicity rating AMARE ([20]; 63 g ai/ha): 95; phytotoxicity rating AMARE ([20]; 250 g ai/ha): 100
3 | COc1c(Cl)cc(F)c(-n2c(=O)cc(C(F)(F)F)n(C)c2=O)c1NC(=O)C(C#N)=Cc1ccccc1 [2-136] | 100 | 100 | 60 | 100 | 0 | 20 | 100 | 100 | 95 | 100 | 0 | 10 | 80 | 100 | 20 | 30 | 0 | 10 | 0 | 0 | phytotoxicity rating CASOB ([11]; 63 g ai/ha): 0; phytotoxicity rating CASOB ([11]; 250 g ai/ha): 40; phytotoxicity rating DIGSA ([12]; 63 g ai/ha): 0; phytotoxicity rating DIGSA ([12]; 250 g ai/ha): 10; phytotoxicity rating ABUTH ([13]; 63 g ai/ha): 80; phytotoxicity rating ABUTH ([13]; 250 g ai/ha): 100; phytotoxicity rating CHEAL ([14]; 63 g ai/ha): 90; phytotoxicity rating CHEAL ([14]; 250 g ai/ha): 100; phytotoxicity rating ECHCG ([15]; 63 g ai/ha): 0; phytotoxicity rating ECHCG ([15]; 250 g ai/ha): 0; phytotoxicity rating IPOHE ([16]; 63 g ai/ha): 0; phytotoxicity rating IPOHE ([16]; 250 g ai/ha): 100; phytotoxicity rating SETVI ([17]; 63 g ai/ha): 10; phytotoxicity rating SETVI ([17]; 250 g ai/ha): 40; RICE phytotoxicity rating (crop damage) ([18]; 63 g ai/ha): 5; RICE phytotoxicity rating (crop damage) ([18]; 250 g ai/ha): 10; CORN phytotoxicity rating (crop damage) ([19]; 63 g ai/ha): 15; CORN phytotoxicity rating (crop damage) ([19]; 250 g ai/ha): 10; phytotoxicity rating AMARE ([20]; 63 g ai/ha): 40; phytotoxicity rating AMARE ([20]; 250 g ai/ha): 90
